This passage reports EC50 results from patent US9163015B2, “Pyrazolopyridine, pyrarolopyrazine, pyrazolopyrimidine, pyrazolothiophene and pyrazolothiazole compounds as MGLUR4 allosteric potentiators, compositions, and methods of treating neurological dysfunction” (Vanderbilt University, priority 2010, dated 2015).

A word on the EC50: it is the concentration that produces a half-maximal response.

For the assay, the target named is human mGluR4 (Homo sapiens (Human), UniProt Q14833). Nature of the assay: mGluR4 potentiation assay, CHO cells transfected with human mGluR4, Ca2+-sensitive fluorescent dye, EC20 agonist. Type of assay: cell-based. Conditions: potentiation of mGluR4; table does not state human or rat receptor. Here is the method:
The disclosed compounds and compositions can be evaluated for their ability to act as a potentiator of metabotropic glutamate receptor activity, in particular mGluR4 activity, by any suitable known methodology known in the art. For example, Chinese Hamster Ovary (CHO) cells transfected with human mGluR4 or HEK cells co-transfected with rat mGluR4 and the G-protein regulated Inwardly Rectifying Potassium channel (GIRK) were plated in clear bottom assay plates for assay in a Hamamatsu FDSS Fluorometric Plate Reader. The cells were loaded with either a Ca2+-sensitive fluorescent dye or the thallium responsive dye and the plates were washed and placed into a suitable kinetic plate reader. For human mGluR4 assays, a fluorescence baseline was established for 3-5 seconds, the disclosed compounds were then added to the cells, and the response in cells was measured. Approximately two and a half minutes later, a concentration of mGluR4 orthosteric agonist (e.g. glutamate or L-AP4) eliciting approximately 20% (EC20) of the maximal agonist response was added to the cells, and the response was measured. Two minutes later, a concentration of mGluR4 agonist (e.g. glutamate or L-AP4) eliciting 80% (EC80) of the maximal agonist response was added to the cells, and the response was measured. For rat mGluR4/GIRK experiments, a baseline was established for approximately five seconds, disclosed compounds were added, and either an EC20 or EC80 concentration of agonist was added approximately two and one half minutes later.
The above described assay operated in two modes. In the first mode, a range of concentrations of the disclosed compounds are added to cells, followed by a single fixed concentration of agonist. If the compound acts as a potentiatior, an EC50 value for potentiation and a maximum extent of potentiation by the compound at this concentration of agonist is determined by non-linear curve fitting. If the compound acts as a noncompetitive antagonist, an IC50 value is determined by non-linear curve fitting. In the second mode, several fixed concentrations of the disclosed compounds are added to various wells on a plate, followed by a range in concentrations of agonist for each concentration of disclosed compound. The EC50 values for the agonist at each concentration of compound are determined by non-linear curve fitting. A decrease in the EC50 value of the agonist with increasing concentrations of the sample compound (a leftward shift of the agonist concentration-response curve) is an indication of the degree of mGluR4 potentiation at a given concentration of the sample compound. A decrease in the maximal response of the agonist with increasing concentrations of the sample compounds, with or without a rightward shift in agonist potency, is an indication of the degree of noncompetitive antagonism at mGluR4. The second mode also indicates whether the sample compounds also affect the maximum response to mGluR4 to agonists.

The structures appear in SMILES notation.

human mGluR4, sequence (Q14833 33-912): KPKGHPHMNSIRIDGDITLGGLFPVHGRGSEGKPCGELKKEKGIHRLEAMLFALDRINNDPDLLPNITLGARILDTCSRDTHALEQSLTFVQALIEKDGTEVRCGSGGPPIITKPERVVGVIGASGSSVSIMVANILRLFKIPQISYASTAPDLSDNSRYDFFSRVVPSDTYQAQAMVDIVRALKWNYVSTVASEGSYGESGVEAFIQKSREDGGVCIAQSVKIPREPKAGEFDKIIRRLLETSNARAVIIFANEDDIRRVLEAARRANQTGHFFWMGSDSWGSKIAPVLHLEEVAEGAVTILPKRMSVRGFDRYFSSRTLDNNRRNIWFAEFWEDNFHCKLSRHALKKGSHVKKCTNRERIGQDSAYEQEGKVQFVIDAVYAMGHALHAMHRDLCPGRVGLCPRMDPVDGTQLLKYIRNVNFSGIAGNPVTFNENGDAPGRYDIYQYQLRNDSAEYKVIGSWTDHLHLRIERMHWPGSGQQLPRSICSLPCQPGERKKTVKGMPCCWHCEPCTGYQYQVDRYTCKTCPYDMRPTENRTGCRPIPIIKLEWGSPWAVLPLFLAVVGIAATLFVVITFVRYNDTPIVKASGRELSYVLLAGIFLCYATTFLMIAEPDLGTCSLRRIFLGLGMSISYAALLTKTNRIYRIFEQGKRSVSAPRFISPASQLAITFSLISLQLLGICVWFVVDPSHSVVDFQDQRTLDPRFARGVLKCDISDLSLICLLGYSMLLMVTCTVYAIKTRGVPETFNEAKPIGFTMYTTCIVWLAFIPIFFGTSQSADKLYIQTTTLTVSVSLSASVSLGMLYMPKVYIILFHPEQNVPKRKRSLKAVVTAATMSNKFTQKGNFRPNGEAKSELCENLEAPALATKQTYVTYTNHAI

For `Fc1cc(Nc2n[nH]c3cccnc23)cc(F)c1F` [Example 80, N-(3,4,5-trifluorophenyl)-1H-pyrazolo[4,3-b]pyridin-3-amine], the EC50 came out at 0.146 µM.
As for `Fc1cc(Nc2n[nH]c3cccnc23)ccc1Oc1ncccn1` [Example 74, N-(3-fluoro-4-(pyrimidin-2-yloxy)phenyl)-1H-pyrazolo[4,3-b]pyridin-3-amine], the EC50 stood at 2.76 µM.
`Fc1ncc(Cl)cc1Nc1n[nH]c2cccnc12` [Example 34, N-(5-chloro-2-fluoropyridin-3-yl)-1H-pyrazolo[4,3-b]pyridin-3-amine]: the concentration for a half-maximal effect (EC50) was 0.597 µM.
On to `Fc1ccc2[nH]nc(Nc3ccc(F)c(Cl)c3)c2n1` [Example 95, N-(3-chloro-4-fluorophenyl)-5-fluoro-1H-pyrazolo[4,3-b]pyridin-3-amine], for which the EC50 worked out at 0.312 µM.
For the compound `COc1ccc(Nc2n[nH]c3cccnc23)cc1Cl` [Example 8, N-(3-chloro-4-methoxyphenyl)-1H-pyrazolo[4,3-b]pyridin-3-amine], the EC50 stood at 0.282 µM.
`Clc1cc(Nc2n[nH]c3cccnc23)cnc1Oc1ccccn1` [Example 96, N-(5-chloro-6-(pyridin-2-yloxy)pyridin-3-yl)-1H-pyrazolo[4,3-b]pyridin-3-amine]: the EC50 was 3.36 µM.
The same measure for `Clc1ccc(Oc2ccc(Nc3n[nH]c4cccnc34)cc2Cl)cc1` [Example 81, N-(3-chloro-4-(4-chlorophenoxy)phenyl)-1H-pyrazolo[4,3-b]pyridin-3-amine]: 1.54 µM; for `FC(F)(F)c1cccc(Nc2n[nH]c3cccnc23)c1` [Example 3, N-(3-(trifluoromethyl)phenyl)-1H-pyrazolo[4,3-b]pyridin-3-amine]: 0.145 µM.
For the compound `COc1cc(Nc2n[nH]c3cccnc23)ccc1F` [Example 11, N-(4-fluoro-3-methoxyphenyl)-1H-pyrazolo[4,3-b]pyridin-3-amine], the EC50 worked out at 1.03 µM.
With `Fc1cccc(Nc2n[nH]c3cccnc23)c1` [Example 12, N-(3-fluorophenyl)-1H-pyrazolo[4,3-b]pyridin-3-amine], the EC50 came to 0.584 µM.
Consider `Cc1cccc(Nc2n[nH]c3cccnc23)c1` [Example 18, N-(m-tolyl)-1H-pyrazolo[4,3-b]pyridin-3-amine], for which the 50% effective concentration (EC50) was 0.0514 µM.
For the compound `CN(c1cccc(Cl)c1)c1n[nH]c2cccnc12` [Example 86, N-(3-chlorophenyl)-N-methyl-1H-pyrazolo[4,3-b]pyridin-3-amine], the EC50 was found to be 8.01 µM.
Take `COc1cc(Nc2n[nH]c3cccnc23)ccc1Cl` [Example 6, N-(4-chloro-3-methoxyphenyl)-1H-pyrazolo[4,3-b]pyridin-3-amine]: the EC50 amounted to 1.11 µM.
